pIC50, pKi: −log10 of the molar value.
Legend:
[1] = biological target: intracellular GCN2 (phosphorylation of the GCN2 substrate eIF2α) (Homo sapiens (Human), UniProt Q9P2K8); assay: GCN2 Cellular Inhibition Assay (AlphaScreen SureFire P-eIF2α Ser51, borrelidin-treated U2OS cells); format: cell-based; settings: 10 μM borrelidin, 1 h, phosphorylated eIF2α Ser51, read-out: GCN2 Biomarker (IC50)
Method in brief: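 Phospho-eIF2α (Ser51) measured by AlphaScreen SureFire in lysates of U2OS cells stimulated 1 h at 37 °C with 10 μM borrelidin alongside compound, 4-fold dilutions from 40 μM. Inhibition expressed as percent relative to borrelidin-alone controls.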

GCN2 kinase = GCN2 kinase (Homo sapiens (Human), UniProt Q9P2K8); assay: GCN2 Enzyme Inhibition Assay (Transcreener ADP2 fluorescence polarization); format: biochemical; settings: 280 μM ATP, 200 μM (RS)7 peptide, 4 nM GCN2, 25° C.; for pKi: Ki(app)
Sequence of GCN2 kinase (Q9P2K8 whole entry): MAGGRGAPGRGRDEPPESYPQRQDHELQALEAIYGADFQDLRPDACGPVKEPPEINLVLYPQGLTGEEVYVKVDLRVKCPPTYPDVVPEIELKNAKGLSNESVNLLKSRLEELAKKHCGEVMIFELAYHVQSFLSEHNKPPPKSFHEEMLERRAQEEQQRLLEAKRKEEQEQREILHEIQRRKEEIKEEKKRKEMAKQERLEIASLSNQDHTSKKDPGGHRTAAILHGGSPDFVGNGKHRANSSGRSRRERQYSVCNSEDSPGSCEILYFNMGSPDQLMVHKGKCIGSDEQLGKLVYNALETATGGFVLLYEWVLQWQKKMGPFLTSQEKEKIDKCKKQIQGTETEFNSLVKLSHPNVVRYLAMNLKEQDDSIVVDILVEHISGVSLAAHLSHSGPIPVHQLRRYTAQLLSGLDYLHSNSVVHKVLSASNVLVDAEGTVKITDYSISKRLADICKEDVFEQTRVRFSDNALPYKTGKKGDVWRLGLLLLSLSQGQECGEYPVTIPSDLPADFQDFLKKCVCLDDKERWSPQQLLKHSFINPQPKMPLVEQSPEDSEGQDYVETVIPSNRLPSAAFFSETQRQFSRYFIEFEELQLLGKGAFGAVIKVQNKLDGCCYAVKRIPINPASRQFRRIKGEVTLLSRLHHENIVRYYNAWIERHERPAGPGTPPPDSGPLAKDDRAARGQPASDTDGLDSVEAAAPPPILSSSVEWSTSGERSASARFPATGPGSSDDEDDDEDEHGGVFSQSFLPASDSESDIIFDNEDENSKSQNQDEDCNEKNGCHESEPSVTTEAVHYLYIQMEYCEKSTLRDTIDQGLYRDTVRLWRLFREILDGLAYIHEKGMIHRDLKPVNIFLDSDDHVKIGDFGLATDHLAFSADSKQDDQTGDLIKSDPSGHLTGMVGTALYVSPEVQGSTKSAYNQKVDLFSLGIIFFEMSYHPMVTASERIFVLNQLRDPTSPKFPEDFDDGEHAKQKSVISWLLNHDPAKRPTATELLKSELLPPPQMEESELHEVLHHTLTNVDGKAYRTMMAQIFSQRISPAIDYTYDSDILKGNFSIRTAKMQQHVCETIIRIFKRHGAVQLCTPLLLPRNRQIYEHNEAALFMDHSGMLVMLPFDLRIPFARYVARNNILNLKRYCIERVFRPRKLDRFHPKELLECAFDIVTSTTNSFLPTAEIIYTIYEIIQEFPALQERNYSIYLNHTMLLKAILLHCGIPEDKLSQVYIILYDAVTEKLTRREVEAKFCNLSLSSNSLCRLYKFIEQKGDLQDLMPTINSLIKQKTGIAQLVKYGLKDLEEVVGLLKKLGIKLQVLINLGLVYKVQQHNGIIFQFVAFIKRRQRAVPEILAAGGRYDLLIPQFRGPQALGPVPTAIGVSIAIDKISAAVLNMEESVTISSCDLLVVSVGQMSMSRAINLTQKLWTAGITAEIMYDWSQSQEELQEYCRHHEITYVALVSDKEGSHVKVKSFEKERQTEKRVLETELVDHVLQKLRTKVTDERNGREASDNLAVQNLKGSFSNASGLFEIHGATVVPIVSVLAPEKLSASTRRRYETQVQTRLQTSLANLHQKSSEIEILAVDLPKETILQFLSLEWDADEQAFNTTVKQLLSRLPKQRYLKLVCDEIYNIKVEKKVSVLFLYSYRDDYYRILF
Method in brief: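 At 25 °C, GCN2 kinase (typical final concentration 4 nM) and (RS)7 peptide in Tris-HCl pH 7.5 buffer with MgCl2, NaCl and DTT were preincubated with compound for 10 min, then ATP was added for a 1 h reaction. ADP was read by FP with antibody/Alexa633 tracer. Non-linear tight-binding analysis gave IC50 and apparent Ki.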

Sequence of intracellular GCN2 (phosphorylation of the GCN2 substrate eIF2α) (Q9P2K8 whole entry): as above

| SMILES | pIC50 [1] | pIC50 (GCN2 kinase) | pKi (GCN2 kinase) |
| --- | --- | --- | --- |
| C[C@H]1CN(c2nccc(-c3cnc4ccc(Cl)cn34)n2)C[C@H](c2cn[nH]c2)O1 [I-246, (2S,6S)-4-(4-(6-chloroimidazo[1,2-a]pyridin-3-yl)pyrimidin-2-yl)-2-methyl-6-(1H-pyrazol-4-yl)morpholine] | 5.30 to 6.30 | 7.00 to 8.00 |  |
| FC(F)c1ccc2ncc(-c3nccc(N4CCOC(c5cn[nH]c5)C4)n3)n2c1 (stereo not drawn) [I-15, 4-[2-[6-(Difluoromethyl)imidazo[1,2-a]pyridin-3-yl]pyrimidin-4-yl]-2-(1H-pyrazol-4-yl)morpholine] | > 6.30 |  | > 8.00 |
| CS(=O)(=O)NCC1CCCN(c2nsc(-c3cnc4ccc(C(F)(F)F)cn34)n2)C1 (stereo not drawn) [I-110, N-((1-(5-(6-(trifluoromethyl)imidazo[1,2-a]pyridin-3-yl)-1,2,4-thiadiazol-3-yl)piperidin-3-yl)methyl)methanesulfonamide] | 5.30 to 6.30 |  | > 8.00 |
| COc1cc(-c2cnc3ccc(Cl)cn23)nc(N2C[C@H](C)C[C@H](c3cn[nH]c3)C2)n1 [I-279, 6-chloro-3-(6-methoxy-2-((3R,5R)-3-methyl-5-(1H-pyrazol-4-yl)piperidin-1-yl)pyrimidin-4-yl)imidazo[1,2-a]pyridine] | 5.30 to 6.30 | 7.00 to 8.00 |  |
| Clc1ccc2ncc(-c3nccc(N4CC5CC5(c5ccccc5)C4)n3)n2c1 (stereo not drawn) [I-84, 6-Chloro-3-[4-(1-phenyl-3-aza-bicyclo[3.1.0]hex-3-yl)-pyrimidin-2-yl]-imidazo[1,2-a]pyridine] | < 5.30 |  | 6.00 to 7.00 |
| C[C@@H]1C[C@@H](c2cn[nH]c2)CN(c2nccc(-c3cnc4ccc(N5CC(F)(F)C5)cn34)n2)C1 [I-261, 6-(3,3-difluoroazetidin-1-yl)-3-(2-((3R,5S)-3-methyl-5-(1H-pyrazol-4-yl)piperidin-1-yl)pyrimidin-4-yl)imidazo[1,2-a]pyridine] | > 6.30 | > 8.00 |  |
| Cc1cc(-c2cnc3ccc(Cl)cn23)nc(N2C[C@@H](C)C[C@@H](c3cn[nH]c3)C2)n1 [I-208, 6-chloro-3-(6-methyl-2-((3S,5S)-3-methyl-5-(1H-pyrazol-4-yl)piperidin-1-yl)pyrimidin-4-yl)imidazo[1,2-a]pyridine] | > 6.30 | 7.00 to 8.00 |  |
| NC(=O)C1CN(c2ccnc(-c3cnc4ccc(C(F)(F)F)cn34)n2)CC(F)(F)C1 (stereo not drawn) [I-202, 5,5-Difluoro-1-[2-(6-trifluoromethyl-imidazo[1,2-a]pyridin-3-yl)-pyrimidin-4-yl]-piperidine-3-carboxylic acid amide] | > 6.30 | > 8.00 | > 8.00 |
| Cc1[nH]ncc1C1CN(c2ccnc(-c3cnc4ccc(Cl)cn34)n2)CC(C)N1 (stereo not drawn) [I-267, 6-chloro-3-(4-(3-methyl-5-(5-methyl-1H-pyrazol-4-yl)piperazin-1-yl)pyrimidin-2-yl)imidazo[1,2-a]pyridine] | 5.30 to 6.30 | 7.00 to 8.00 |  |
| Cc1[nH]ncc1C1CN(c2ccnc(-c3cnc4ccc(Cl)cn34)n2)CC(C)N1S(C)(=O)=O (stereo not drawn) [I-268, 6-chloro-3-(4-(3-methyl-5-(5-methyl-1H-pyrazol-4-yl)-4-(methylsulfonyl)piperazin-1-yl)pyrimidin-2-yl)imidazo[1,2-a]pyridine] | 5.30 to 6.30 | > 8.00 |  |
| NC(=O)[C@H]1CCCN(c2nccc(-c3cnc4ccc(Cl)cn34)n2)C1 [I-183, (S)-1-(4-(6-chloroimidazo[1,2-a]pyridin-3-yl)pyrimidin-2-yl)piperidine-3-carboxamide] | > 6.30 | 7.00 to 8.00 |  |
| CS(=O)(=O)NCC1CCN(c2ccnc(-c3cnc4cc(F)c(Br)cn34)n2)C1 (stereo not drawn) [I-25, N-[[1-[2-(6-Bromo-7-fluoro-imidazo[1,2-a]pyridin-3-yl)pyrimidin-4-yl]pyrrolidin-3-yl]methyl]methanesulfonamide] | 5.30 to 6.30 |  | > 8.00 |
| COCCn1cc([C@H]2C[C@@H](C)CN(c3nccc(-c4cnc5ccc(C(F)(F)F)cn45)n3)C2)cn1 [I-143, 3-(2-((3R,5R)-3-(1-(2-methoxyethyl)-1H-pyrazol-4-yl)-5-methylpiperidin-1-yl)pyrimidin-4-yl)-6-(trifluoromethyl)imidazo[1,2-a]pyridine] | > 6.30 | 7.00 to 8.00 |  |
| NC(=O)C1CN(c2ccnc(-c3cnc4ccc(C(F)(F)F)cn34)n2)CCN1 (stereo not drawn) [I-217, 4-(2-(6-(trifluoromethyl)imidazo[1,2-a]pyridin-3-yl)pyrimidin-4-yl)piperazine-2-carboxamide] | 5.30 to 6.30 | 7.00 to 8.00 |  |

Now from value to molecule:

| pIC50 [1] | pIC50 (GCN2 kinase) | pKi (GCN2 kinase) | SMILES |
| --- | --- | --- | --- |
| 5.30 to 6.30 | 6.00 to 7.00 |  | Cc1oncc1[C@@H]1CN(c2ccnc(-c3cnc4ccc(C(F)(F)F)cn34)n2)C[C@@H](C)O1 [I-343, (2R,6R)-2-methyl-6-(5-methylisoxazol-4-yl)-4-(2-(6-(trifluoromethyl)imidazo[1,2-a]pyridin-3-yl)pyrimidin-4-yl)morpholine] |
| 5.30 to 6.30 | 7.00 to 8.00 |  | CC(NS(C)(=O)=O)C1CN(c2ccnc(-c3cnc4ccc(C(F)(F)F)cn34)n2)CCO1 (stereo not drawn) [I-327, N-(1-(4-(2-(6-(trifluoromethyl)imidazo[1,2-a]pyridin-3-yl)pyrimidin-4-yl)morpholin-2-yl)ethyl)methanesulfonamide] |
| 5.30 to 6.30 | 7.00 to 8.00 |  | C[C@@H](NS(C)(=O)=O)[C@@H]1[C@H](C)N(c2ccnc(-c3cnc4ccc(C(F)(F)F)cn34)n2)CCN1C1CC1 [I-506, N—((R)-1-((2 S,3 S)-1-cyclopropyl-3-methyl-4-(2-(6-(trifluoromethyl)imidazo[1,2-a]pyridin-3-yl)pyrimidin-4-yl)piperazin-2-yl)ethyl)methanesulfonamide] |
| > 6.30 | > 8.00 |  | FC(F)(F)c1ccc2ncc(-c3nccc(N4CCN(CC5C6COCC65)C(c5cn[nH]c5)C4)n3)n2c1 (stereo not drawn) [I-370, 3-(4-(4-((3-oxabicyclo[3.1.0]hexan-6-yl)methyl)-3-(1H-pyrazol-4-yl)piperazin-1-yl)pyrimidin-2-yl)-6-(trifluoromethyl)imidazo[1,2-a]pyridine] |
| > 6.30 | > 8.00 |  | FC(F)(F)c1ccc2ncc(-c3nccc(N4CCN(CC5CC5(F)F)C(c5cn[nH]c5)C4)n3)n2c1 (stereo not drawn) [I-470, 3-(4-(4-((2,2-difluorocyclopropyl)methyl)-3-(1H-pyrazol-4-yl)piperazin-1-yl)pyrimidin-2-yl)-6-(trifluoromethyl)imidazo[1,2-a]pyridine] |
| 5.30 to 6.30 | 6.00 to 7.00 |  | C[C@H](NS(C)(=O)=O)[C@H]1[C@@H](C)N(c2ccnc(-c3cnc4ccc(C(F)(F)F)cn34)n2)CCN1C1CC1 [I-507, N—((S)-1-((2R,3R)-1-cyclopropyl-3-methyl-4-(2-(6-(trifluoromethyl)imidazo[1,2-a]pyridin-3-yl)pyrimidin-4-yl)piperazin-2-yl)ethyl)methanesulfonamide] |
| 5.30 to 6.30 | 6.00 to 7.00 |  | c1ccc(Oc2ccc3ncc(-c4nccc(N5CCC[C@H](c6cn[nH]c6)C5)n4)n3c2)cc1 [I-398, 2-{6-phenoxyimidazo[1,2-a]pyridin-3-yl}-4-[(3R)-3-(1H-pyrazol-4-yl)piperidin-1-yl]pyrimidine] |
| < 5.30 | 7.00 to 8.00 |  | O=C(c1cnon1)N1CCN(c2ccnc(-c3cnc4ccc(C(F)(F)F)cn34)n2)CC1c1cn[nH]c1 (stereo not drawn) [I-441, (2-(1H-pyrazol-4-yl)-4-(2-(6-(trifluoromethyl)imidazo[1,2-a]pyridin-3-yl)pyrimidin-4-yl)piperazin-1-yl)(1,2,5-oxadiazol-3-yl)methanone] |
| 5.30 to 6.30 | 7.00 to 8.00 |  | O=C(C1CC1)N1CCN(c2ccnc(-c3cnc4ccc(C(F)(F)F)cn34)n2)CC1c1cn[nH]c1 (stereo not drawn) [I-397, (2-(1H-pyrazol-4-yl)-4-(2-(6-(trifluoromethyl)imidazo[1,2-a]pyridin-3-yl)pyrimidin-4-yl)piperazin-1-yl)(cyclopropyl)methanone] |
| < 5.30 | 6.00 to 7.00 |  | CC(C)(C)OC(=O)N1CC2(C1)OCCN(c1ccnc(-c3cnc4ccc(C(F)(F)F)cn34)n1)C2(C)C [I-388, tert-butyl 9,9-dimethyl-8-(2-(6-(trifluoromethyl)imidazo[1,2-a]pyridin-3-yl)pyrimidin-4-yl)-5-oxa-2,8-diazaspiro[3.5]nonane-2-carboxylate] |
| 5.30 to 6.30 | 7.00 to 8.00 |  | C[C@@H]1C[C@H](N=S(C)(C)=O)CN(c2ccnc(-c3cnc4ccc(OC(F)F)cn34)n2)C1 [I-291, dimethyl(((3 S,5R)-5-methyl-1-(2-(6-(difluoromethoxy)imidazo[1,2-a]pyridin-3-yl)pyrimidin-4-yl)piperidin-3-yl)imino)-λ6-sulfanone] |
| 5.30 to 6.30 | > 8.00 |  | NC(=O)C1CN(c2ccnc(-c3cnc4ccc(Cl)cn34)n2)CCN1C1CC1 (stereo not drawn) [I-286, 4-(2-(6-chloroimidazo[1,2-a]pyridin-3-yl)pyrimidin-4-yl)-1-cyclopropylpiperazine-2-carboxamide] |
| 5.30 to 6.30 | > 8.00 |  | OC1CC(N2CCN(c3ccnc(-c4cnc5ccc(C(F)(F)F)cn45)n3)CC2c2cn[nH]c2)C1 (stereo not drawn) [I-383, 3-(2-(1H-pyrazol-4-yl)-4-(2-(6-(trifluoromethyl)imidazo[1,2-a]pyridin-3-yl)pyrimidin-4-yl)piperazin-1-yl)cyclobutan-1-ol] |
| > 6.30 | 7.00 to 8.00 |  | COc1cc(-c2cnc3ccc(Cl)cn23)nc(N2C[C@@H](C)C[C@@H](c3cn[nH]c3)C2)n1 [I-281, 6-chloro-3-(6-methoxy-2-((3S,5S)-3-methyl-5-(1H-pyrazol-4-yl)piperidin-1-yl)pyrimidin-4-yl)imidazo[1,2-a]pyridine] |

Source: patent US10793563B2, “GCN2 inhibitors and uses thereof” (Merck Patent GmbH, priority 2018, dated 2020)
